Experimental data from paper PMC12189671, “Antioxidant Activity and Cytotoxicity Evaluation of New Catechol Hydrazinyl-Thiazole Derivatives as Potential Protectors in Retinal Degenerative Processes” (Antioxidants, 2025).
Each block holds one compound with its values, some of them ahead of it.

Key:
[1] = DPPH radical scavenging assay; settings: 30 min incubation, λ = 517 nm
Experimental: The DPPH^• radical scavenging assay is based on transferring a hydrogen atom from the tested compounds to the violet stable free radical DPPH^• (2,2-diphenyl-1-picrylhydrazyl radical), converting it into a yellow compound. The assay was conducted using tested compounds and references in concentrations ranging from 2 to 50 µM, according to our adaptation of the protocol of Brand-Williams et al.. The absorbance of the samples is given by the remaining unreacted reagent radical, and it is inversely proportional to the amount of DPPH^• neutralized. The absorbance of the samples was measured at λ = 517 nm after 30 min of incubation in the dark at room temperature. The DPPH^• radical scavenging activity of the compounds was calculated using Equation (1):(1) DPPH^• scavenging (%)=control absorbance−sample absorbance/control absorbance×100

[2] = ABTS radical cation decolorization assay; settings: 10 min incubation, pH 7.4, λ = 734 nm
Experimental: The ABTS^•+ (2,2′-azinobis-(3-ethylbenzothiazoline-6-sulfonic acid) decolorization assay, based on the method of Re et al., was performed in the concentration range of 1 to 25 µM according to protocols previously reported by our group. The reagent was prepared in a 0.1 M potassium phosphate buffer (pH 7.4) and activated overnight with MnO2 [89]. Prior to use, the stability of the ABTS^•+ reagent was verified by checking its absorbance at λ = 734 nm over one hour, ensuring a consistent absorption of around 0.7. The mixtures were incubated for 10 min in the dark at room temperature. The absorbance of the samples is given by the remaining unreacted reagent radical, and it is inversely proportional to the amount of ABTS^•+ neutralized. The ABTS^•+ scavenging activity of compounds was calculated using Equation (2).(2) ABTS^•^+ scavenging (%)=control absorbance−sample absorbance/control absorbance×100

[3] = system: rat microsomal membrane lipid peroxidation; test: Lipid peroxidation inhibition assay (LPI), 2-thiobarbituric acid method; format: biochemical; settings: ascorbic acid/Fe^2+ system, 37 °C, 45 min
Experimental: Rat liver microsomes were homogenized in saline, and the resulting homogenates were centrifuged at 9000× g for 20 min at 4 °C to remove cell debris. The supernatant underwent ultracentrifugation at 110,000× g for 40 min at 4 °C. The pelleted microsomal fraction was subsequently washed with saline via another round of ultracentrifugation under identical conditions. Thereafter, the pellet was resuspended in Tris-HCl buffer (pH 7.4) to achieve a concentration equivalent to 0.5 g liver per mL and was stored until further analysis (at −80 °C). For the assay, the microsomal preparation was thermally inactivated by incubation at 90 °C for 90 s, then homogenized again and diluted to a final concentration equivalent to 4 mM fatty acid equivalents. […] All mixtures were incubated at 37 °C under air with continuous shaking. […] This was followed by heating at 90 °C for 20 min and centrifugation at 3000 rpm for 15 min. As a result of the breakdown of unsaturated fatty acids, malondialdehyde reacts with the 2-thiobarbituric acid to produce a pink compound due to the formation of a Schiff base. The extent of lipid peroxidation was measured spectrophotometrically at 535/600 nm, which is proportional to the amount of the chromogen reaction product formed between 2-thiobarbituric acid and malondialdehyde. The determinations were performed in triplicate, and the standard deviation was within ±10% of the mean value.

[4] = Indirect 1O2 scavenging assay (ICG photo-generator, DPBF probe)
Experimental: The ^1O2 scavenging assay was employed using a previously established indirect protocol from our research group. In brief, indocyanine green (ICG), from Sigma–Aldrich (St. Louis, MO, USA), was utilized to induce ^1O2 production in the presence of 5a and 5b. Ascorbic acid was used as a reference antioxidant agent, and a blank sample without ^1O2 scavengers was prepared. The reaction mixtures were exposed to a Micro Raman System R-3000 (Photonitech, Singapore, Singapore) laser diode,(λ = 785 nm, 190 mW power) for a total time of 100 s. To evaluate the ^1O2 scavenging activity of the compounds 5a,b, the degradation of 1,3-diphenylisobenzofuran (DPBF), obtained from Alfa Aesar (Haverhill, MA, USA), was measured using a V-730 spectrophotometer (Jasco International Co., Ltd., Tokyo, Japan). To determine the ^1O2 quantum yields (Φ(^1O2)) of ICG in the presence of the studied molecules, the following equation was used: Φ(^1O2) = Φ(^1O2) ^ICG × ((S × F^ICG)/(S^ICG × F)), where S represents the slope of the absorbance difference of DPBF over time, F is the absorption correction factor (F = 1 − 10^−OD), and OD is the optical density at the excitation wavelength, λ = 785 nm. The Φ(^1O2) equal to 15.0% of free ICG was used as a reference. The concentrations utilized in the experiment were 0.1 mM for DPBF and 10^−5 M for ICG and the ^1O2 scavengers. Free DPBF was used as a control.
The efficacy of compounds 5a,b against ^1O2 was assessed using an indirect approach. ICG was used as a photo-induced ^1O2 generator alongside DPBF, serving as an indirect chemical probe capable of characterizing ^1O2 release in solution. This setup allowed us to evaluate the ^1O2 scavenging capacity of the tested molecules and compare their activity to a reference compound, specifically ascorbic acid. The samples were exposed to 785 nm laser radiation, and at 10-s intervals after irradiation, their UV-Vis absorption spectra were measured and analyzed (Figure 9). Subsequently, we determined the ^1O2 quantum yields (Φ(^1O2)) of ICG in the presence of 5a,b and ascorbic acid, using the Φ(^1O2) of free ICG of 15.0% as reference.

[5] = Ferrous ions chelation assay (ferrozine)
Experimental: Solutions of the tested compounds or ethylenediaminetetraacetic acid disodium salt (EDTA-Na2), used as a positive control, were thoroughly mixed with 0.5 mL of FeSO4 (0.125 mM) and 0.5 mL of ferrozine (0.315 mM). After a 10-min incubation in the dark at room temperature, the absorbance was measured at λ = 562 nm.

[6] = set-up: method as in PMID 30881661; settings: free ICG, used as reference; cited from earlier work
[7] = system: OR51E2; set-up: method as in PMID 29249973; settings: RPE cells; cited from earlier work

- IC50 [1]: 35.8 µM
- IC50 [2]: 15.9 µM
- IC50 [3]: 25 µM
SMILES: Cc1c(C)c2c(c(C)c1O)CCC(C)(C(=O)O)O2 (stereo not shown) [Trolox, reference compound]

- IC50 [1]: 50.2 µM
SMILES: O=C1O[C@H]([C@@H](O)CO)C(O)=C1O [Ascorbic acid, ascorbic acid, reference compound]
- ^1O2 quantum yield Φ(^1O2) of ICG in the presence of the scavenger ([4]; 10^−5 M ICG and scavenger, 785 nm laser, 100 s): 9.4%
- reduction of ^1O2 quantum yield of ICG compared to ICG alone ([4]; addition of scavenger to ICG): 5.6%

SMILES: O=C([O-])CN(CCN(CC(=O)O)CC(=O)O)CC(=O)[O-].[Na+].[Na+] [EDTA-Na2, ethylenediaminetetraacetic acid disodium salt, reference compound]
- % of ferrous ions chelation ([5]; 50 nM): 11.71%
- % of ferrous ions chelation ([5]; 100 nM): 20.00%
- % of ferrous ions chelation ([5]; 150 nM): 36.37%
- % of ferrous ions chelation ([5]; 175 nM): 61.98%
- % of ferrous ions chelation ([5]; 200 nM): 86.53%

SMILES: CC1(C)C(/C=C/C=C/C=C/C=C2\N(CCCCS(=O)(=O)O)c3ccc4ccccc4c3C2(C)C)=[N+](CCCCS(=O)(=O)[O-])c2ccc3ccccc3c21 [ICG, indocyanine green]
- ^1O2 quantum yield Φ(^1O2) of ICG alone [6]: 15%

SMILES: CC(=O)/C=C/C1=C(C)CCCC1(C)C [β-ionone]
- threshold concentration to trigger a cellular response [7]: under 10 µM
